A value given as a limit tells only on which side of the number the result lay.

Series [1] deals with CSR3 (class 1 RNase III of Sweet potato chlorotic stunt virus) (Sweet potato chlorotic stunt virus, UniProt Q8JJW8). Nature of the series: biochemical. Format: biochemical. The following applies: for DSS (drug-sensitivity score): dose-response 1.25 nM to 50 µM, Breeze software. On the procedure: A dose–response assay was carried out with the top 109 compounds (concentration range 1.25 nM to 50 µM). The data were analysed with Breeze software, which generates dose–response curves and calculates the half‐maximal inhibitory concentration (IC50) and drug‐sensitivity score (DSS) for every compound. Considering that IC50 alone cannot comprehensively evaluate the drug sensitivity of the dose–response model in HTS assay, DSS was developed by Yadav et al. (2014) as a systematic algorithmic solution that integrated five factors: IC50, the slope at IC50, minimum activity level, and top and bottom asymptotes of dose–response model. The DSS values ranged from 0 to 19.2. The three structures differ (Figure 6, starred compounds). […] Table S1 lists the 109 compounds from the dose–response screens for CSR3, including information for compound identity, IC50, DSS, and dose–response curves.
For the HTS assay, plates (10 µM compound in each well) were prepared with an Echo liquid handler (Labcyte) at the FIMM (Institute for Molecular Medicine Finland) High‐Throughput Biomedicine unit. CSR3 and annealed siRNA were diluted to […] and 750 nM, respectively, in reaction buffer (50 mM Tris‐HCl, 125 mM NaCl, 25 mM MgCl2, pH 8.0). CSR3 solutions were dispensed into the wells of plates (10 µl CSR3 per well). Plates were incubated at room temperature for 15 min with shaking (450 rpm). Subsequently, 10 µl substrate was dispensed per well. […] The dose–response assay with six compound concentrations (range, 1.25 nM to 50 µM) was carried out with the same conditions. Plates were sealed, centrifuged briefly, and then, immediately analysed with a PHERAstar FS (BMG Labtech) with a fluorescence‐intensity optic module (excitation at 485 ± 6 nm, detection at 520 ± 5 nm) for 12 cycles (c.17 min total) at 37 °C. All dispensing was done using the BioTek MultiFlo FX. All screening plates contained positive‐control wells (lacking CSR3) and negative‐control wells (25 nl dimethyl sulphoxide, vehicle), which were used as standards to calculate the PI of compounds.
The PI of each compound for CSR3 was calculated according to Equation 2. A PI threshold of 30% was used as the cut‐off value for one concentration of HTS. Furthermore, the dose–response curves of PI in function of compound concentration were evaluated with DSS according to Yadav et al. (2014).(2) PI=1001-Ss-Sc+/SC--Sc+% where Sc + is the mean of the slope of the positive control, Sc − is the mean of the slope of the negative control, and Ss is the mean of the slope of samples.

Series [2] relates to HIV-1 reverse transcriptase. Set-up: method as in PubChem database. The note with it: ref PubChem database; cited from earlier work.
Series [3] relates to human heat shock 70 kDa protein. The arrangement: method as in PubChem database. The note with it: ref PubChem database; cited from earlier work.
Series [4] has as its system Cytokine/receptor Binary Complex of humans (4KC3_B). Set-up: method as in PubChem database. The following applies: ref PubChem database; cited from earlier work.
The subject of a further series is CSR3. Description: CSR3 kinetics with labelled siRNA substrate (Michaelis-Menten). Format: biochemical, Sweet potato chlorotic stunt virus. The following applies: 50 nM CSR3, 50-800 nM labelled siRNA. The method, then:
To monitor the kinetics of CSR3 endoribonuclease activity, two‐fold dilutions (yielding 50–800 nM) of the labelled siRNA substrate were tested with 50 nM CSR3. As expected, start points of raw fluorescence increased with the FRET‐siRNA concentration (Figure 4a). Moreover, the slope of the raw fluorescence between all neighbouring detection cycles was calculated for all cycle numbers. […] Finally, the maximal slope for every labelled siRNA concentration was used to determine the catalytic rate of CSR3.
The HTS assay was designed to maximize siRNA cleavage by CSR3. We used a donor–quencher fluorogenic siRNA as the substrate for CSR3. […] To assess CSR3 activity, five labelled siRNA concentrations (50–800 nM) were used with 50 nM CSR3. To test the reproducibility and precision of the assay, full plates containing only negative (50 nM CSR3) and positive reactions (lacking CSR3) were tested with 375 nM labelled siRNA. […]
The kinetic constant (K d) for CSR3 was calculated using the three‐parameter Michaelis–Menten model (MM.3) included in the R package dcr (Ritz et al., 2015). The statistical significance of differences between values was assessed with one‐way ANOVA using the aov function in the R package.

Chain of CSR3 (class 1 RNase III of Sweet potato chlorotic stunt virus) (Q8JJW8 entry or part of it): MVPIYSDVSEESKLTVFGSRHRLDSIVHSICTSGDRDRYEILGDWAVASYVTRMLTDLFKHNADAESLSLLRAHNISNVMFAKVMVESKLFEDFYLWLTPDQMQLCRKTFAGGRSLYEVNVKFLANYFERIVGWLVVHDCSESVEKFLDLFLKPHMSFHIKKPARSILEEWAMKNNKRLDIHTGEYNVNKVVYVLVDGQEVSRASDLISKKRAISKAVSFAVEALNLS

Take `CN1CCc2cccc3c2[C@H]1Cc1ccc(O)c(O)c1-3` [FIMM000096]: in series [1], the IC50 turned out to be 2900 nM and the “DSS (drug-sensitivity score)” value is given as 12.7.

As for `O=C1c2c(O)ccc(O)c2C(=O)c2c(NCCNCCO)ccc(NCCNCCO)c21` [FIMM000490], in series [1], the half-inhibitory concentration (IC50) was found to be 1810 nM and the “DSS (drug-sensitivity score)” value is 14.9.

Consider `O=C(O)c1ccc(C2Nc3c(Br)cccc3C3C=CCC32)cc1` (stereo not drawn) [FIMM022230], for which, in series [1], half-maximal inhibition (IC50) required 1860 nM and the “DSS (drug-sensitivity score)” value turned out to be 13.8.

`Cc1ccc(C)c(C(=O)CSc2nnc[nH]2)c1` [FIMM027745] gave a concentration for half-maximal inhibition (IC50) in series [1] of 647 nM. Also, the “DSS (drug-sensitivity score)” value in series [1] came to 19.2. The “activity in inhibitor screen” value in series [2] and in series [3] was “inactive” in each case.

Turning to `CCn1c(C)nc2cc(S(N)(=O)=O)ccc21` [FIMM028155], in series [1], half-maximal inhibition (IC50) required 782 nM and the “DSS (drug-sensitivity score)” value is given as 17.6.

With `Cc1ccc([C@@H]2Nc3ccc(C(=O)O)cc3[C@@H]3C=CC[C@@H]32)cc1` [FIMM031755], the IC50 in series [1] was determined as 1270 nM. The “activity in inhibitor screening assay” value in series [4] is reported as “effective at micromolar concentrations”.

Take `CN1C(=O)C(=CNc2ccc(F)cc2)C(=O)N(C)C1=O` [FIMM059523]: in series [1], the IC50 is over 50000 nM and the “DSS (drug-sensitivity score)” value turned out to be 0.

Consider `O=S(=O)(O)c1cccc2cc(O)ccc12` [FIMM072577], for which, in series [1], the IC50 was 699 nM and the “DSS (drug-sensitivity score)” value turned out to be 18.3.

For the compound `c1cnc2[nH]c(Nc3ccc(Nc4nc5cccnc5[nH]4)cc3)nc2c1` [FIMM092170], in series [1], the IC50 is 2840 nM and the “DSS (drug-sensitivity score)” value stood at 12.9.

In the case of `CCn1c(S)nnc1CCNC(=O)c1cccs1` [FIMM099662], in series [1], the midpoint of inhibition, the IC50, lay at 3070 nM and the “DSS (drug-sensitivity score)” value was 11.7.

For the compound `COc1cc(C=C2C(=O)NC(=S)NC2=O)ccc1OCc1ccccc1[N+](=O)[O-]` [FIMM101864], in series [1], half-maximal inhibition (IC50) required 3850 nM and the “DSS (drug-sensitivity score)” value is 11.2.

Regarding `CC(C)(C)C1CCc2c(sc(NC(=O)C3CC=CCC3C(=O)O)c2C(N)=O)C1` (stereo not drawn) [FIMM104970], the “DSS (drug-sensitivity score)” value in series [1] was 0.

Consider “labelled siRNA: 22 bp siRNA with two-nucleotide 3' overhang, FAM reporter and BHQ1 quencher on the sense strand; CSR3 substrate (sense CGUAGUGGAAGUGGGAGAGGTC; antisense CCUCUCCCACUUCCACUACGTG; FAM reporter and BHQ1 quencher on sense strand, positions not given here)”, for which the Km with CSR3 (Michaelis-Menten model MM.3) came out at 0.229 µM. In the series on CSR3 (maximal slope), the Vmax is 22.47.

One may read the IC50 as the point on the concentration scale where inhibition reaches its midpoint. The term Km denotes the concentration of substrate that gives half-maximal velocity.

The values above are taken from publication PMC7280029, “Development of FRET‐based high‐throughput screening for viral RNase III inhibitors” (Molecular Plant Pathology, 2020).
